Results as given in ChEMBL document CHEMBL1201862, “PubChem BioAssay data set” (2004).
Calls of active or inactive are those of the source.

Assays:
[1] = molecular target: Glyceraldehyde-3-phosphate dehydrogenase (Homo sapiens, UniProt P04406)
[2] = molecular target: T1, Alkaline phosphatase, tissue-nonspecific isozyme (Homo sapiens, UniProt P05186); assay: human TNAP enzyme inhibitors, SAR follow-up, biochemical, luminescent, dose response (AID 1056)
T1 sequence (P05186 whole entry): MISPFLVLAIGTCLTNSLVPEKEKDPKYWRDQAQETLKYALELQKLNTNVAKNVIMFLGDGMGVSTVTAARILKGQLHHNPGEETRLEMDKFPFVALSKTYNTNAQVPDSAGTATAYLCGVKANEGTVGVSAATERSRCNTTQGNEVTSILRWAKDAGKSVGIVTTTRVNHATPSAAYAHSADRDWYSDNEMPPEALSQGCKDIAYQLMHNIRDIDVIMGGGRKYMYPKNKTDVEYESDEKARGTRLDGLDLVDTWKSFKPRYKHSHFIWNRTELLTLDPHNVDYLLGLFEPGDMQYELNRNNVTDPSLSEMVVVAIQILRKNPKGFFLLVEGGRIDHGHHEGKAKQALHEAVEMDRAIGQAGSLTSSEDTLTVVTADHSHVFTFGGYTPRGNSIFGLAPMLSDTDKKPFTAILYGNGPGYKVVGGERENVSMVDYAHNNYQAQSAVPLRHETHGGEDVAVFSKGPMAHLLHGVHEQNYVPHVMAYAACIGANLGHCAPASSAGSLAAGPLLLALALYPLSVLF

Bcl-2-like protein 10 = molecular target: T2, Bcl-2-like protein 10 (Homo sapiens, UniProt Q9HD36); assay: displacers of TR3 peptide from Bcl-B, primary screen, selectivity assay for Bfl-1 inhibitor project, biochemical, fluorescence polarization, FITC-TR3 peptide (AID 748);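 note: fluorescence polarization from a fluorescein-labelled TR3 peptide binding purified Bcl-B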
T2 sequence (Q9HD36 whole entry): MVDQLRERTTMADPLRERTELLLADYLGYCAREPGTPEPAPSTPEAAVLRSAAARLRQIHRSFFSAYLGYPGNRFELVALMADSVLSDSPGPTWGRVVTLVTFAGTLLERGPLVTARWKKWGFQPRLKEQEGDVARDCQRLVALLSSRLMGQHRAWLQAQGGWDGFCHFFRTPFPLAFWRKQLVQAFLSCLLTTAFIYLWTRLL

Estrogen receptor = molecular target: T3, Estrogen receptor (Homo sapiens, UniProt P03372);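 note: potency for inhibiting coactivator peptide recruitment to the receptor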
T3 sequence (P03372 whole entry): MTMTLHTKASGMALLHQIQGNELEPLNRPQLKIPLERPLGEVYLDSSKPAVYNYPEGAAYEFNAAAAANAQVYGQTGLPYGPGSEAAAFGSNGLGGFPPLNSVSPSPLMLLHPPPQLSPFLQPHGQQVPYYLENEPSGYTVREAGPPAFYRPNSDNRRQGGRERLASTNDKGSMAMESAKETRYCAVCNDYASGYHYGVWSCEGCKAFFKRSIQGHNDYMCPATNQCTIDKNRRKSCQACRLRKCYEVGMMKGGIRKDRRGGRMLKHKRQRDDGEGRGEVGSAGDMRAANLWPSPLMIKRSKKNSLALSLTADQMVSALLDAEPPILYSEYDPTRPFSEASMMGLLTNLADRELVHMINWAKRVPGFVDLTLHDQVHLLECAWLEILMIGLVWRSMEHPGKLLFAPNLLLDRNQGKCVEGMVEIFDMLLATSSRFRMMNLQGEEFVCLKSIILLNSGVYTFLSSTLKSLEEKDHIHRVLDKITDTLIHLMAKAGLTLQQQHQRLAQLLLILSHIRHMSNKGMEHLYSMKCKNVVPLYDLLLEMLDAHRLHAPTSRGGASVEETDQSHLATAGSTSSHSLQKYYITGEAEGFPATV

cells [3] = assay: cells
[4] = HEp-2 cell cytotoxicity, dose response, cytotoxicity control for RSV inhibitor project, HTS (AID 2410); assay type: functional; conditions: human respiratory syncytial virus
[5] = molecular target: DNA dC->dU-editing enzyme APOBEC-3A (Homo sapiens, UniProt P31941); assay: Dose Response confirmation of small molecule APOBEC3A DNA Deaminase Inhibitors via a fluorescence-based single-stranded DNA deaminase assay. [Related pubchem assays (depositor defined):AID493011, AID493024]; assay type: functional
[6] = molecular target: DNA dC->dU-editing enzyme APOBEC-3G (Homo sapiens, UniProt Q9HC16); assay type: functional;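 note: Dose-response counterscreen measuring inhibition of APOBEC3G DNA deaminase activity, run while confirming APOBEC3A inhibitors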
[7] = molecular target: T4, Heat shock factor protein 1 (Mus musculus, UniProt P38532); assay: inhibition of MG132-induced HSE-luciferase signal, confirmation, cell-based, NIH3T3, luminescence, dose retest (AID 2382); assay type: functional;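 note: NIH3T3 fibroblasts with HSF1-driven luciferase reporter stressed by proteasome inhibitor MG132; luminescence from HSF1-driven luciferase expression after 8 hours of MG132 stress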
T4 sequence (P38532 whole entry): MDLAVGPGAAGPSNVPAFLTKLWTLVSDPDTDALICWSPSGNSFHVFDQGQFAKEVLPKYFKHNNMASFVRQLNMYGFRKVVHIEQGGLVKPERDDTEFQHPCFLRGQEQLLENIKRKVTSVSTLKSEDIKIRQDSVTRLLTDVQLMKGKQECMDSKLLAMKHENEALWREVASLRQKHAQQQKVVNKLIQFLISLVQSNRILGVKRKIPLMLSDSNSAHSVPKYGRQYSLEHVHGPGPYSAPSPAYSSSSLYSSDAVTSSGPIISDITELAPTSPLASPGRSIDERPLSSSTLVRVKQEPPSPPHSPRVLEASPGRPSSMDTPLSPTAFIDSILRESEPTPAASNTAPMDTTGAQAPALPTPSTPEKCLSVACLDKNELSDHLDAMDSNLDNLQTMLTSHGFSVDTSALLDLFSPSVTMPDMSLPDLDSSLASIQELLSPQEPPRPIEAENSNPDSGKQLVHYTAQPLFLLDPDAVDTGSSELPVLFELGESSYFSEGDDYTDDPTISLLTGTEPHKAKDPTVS

Prothrombin = Prothrombin (Homo sapiens, UniProt P00734); assay: Thrombin 1536 HTS Dose Response Confirmation. [Related pubchem assays: 1046 (Thrombin 1536 HTS; hits were confirmed in this assay)]; assay type: functional
[8] = Luminescence Cell-Based Dose Confirmation HTS to Identify Activators of 5'UTR Stem-Loop Driven Alpha-Synuclein mRNA Translation in H4 Neuroglioblastoma Cells. [Related pubchem assays: 1829 (Project Summary), 1814 (Primary HTS)]; assay type: functional
[9] = Luminescence Cell-Based Dose Response HTS to Identify Activators of Luciferase Translation or Activity in H4 […] Cells. [Related pubchem assays: 1829 (Project Summary), 1814 (Primary HTS)]; assay type: functional
H4 = assay: Luminescence Cell-Based Dose Response HTS to Identify Activators of 5'UTR Stem-Loop Driven Prion Protein mRNA Translation in H4 Neuroglioblastoma Cells. [Related pubchem assays: 1829 (Project Summary), 1814 (Primary HTS)]; assay type: functional; conditions: Homo sapiens
[10] = inhibitors of intracellular T. cruzi replication, confirmation, NIH3T3 host cells, beta-gal luminescence (AID 2044); assay type: functional, cell-based;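 note: intracellular parasites grown in NIH/3T3 mouse fibroblasts as host cells; luminescent beta-galactosidase reporter signal from transgenic T. cruzi replicating inside host cells; inhibitors lower the luminescence signal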
[11] = growth suppression of PTEN-null colon cells, dose response, cell-based, HCT116 PTEN knockout (AID 1047); assay type: functional;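 note: HCT116 colon tumor cells with PTEN knocked out; cells exposed to compound for 60 hours before readout; potency for loss of cell viability measured by luminescence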
[12] = cytotoxicity toward NIH3T3 fibroblasts, dose response, counter-screen, cell-based, ATP luminescence, mouse fibroblasts (AID 2010); assay type: functional;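 note: cells exposed to compound for about 90 hours before reading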
[13] = growth suppression of beta-catenin-knockout colon cells, dose response, cell-based, HCT116, human colon tumor (AID 1045); assay type: functional;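 note: HCT116 colon tumor cells with beta catenin knocked out; cells exposed to compound for 60 hours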
[14] = THP-1 cell cytotoxicity, dose response, cytotoxicity control for non-replicating M. tuberculosis project (AID 489025); assay type: functional
[15] = HepG2 cell cytotoxicity, dose response, cytotoxicity control for non-replicating M. tuberculosis project (AID 489018); assay type: functional; conditions: Mycobacterium tuberculosis
[16] = Vero E6 cell cytotoxicity, dose response, cytotoxicity control for non-replicating M. tuberculosis project, secondary assay (AID 492998); assay type: functional, VeroE6; conditions: Vero C1008
cells [17] = assay type: functional
INS1 = assay: beta cell apoptosis inhibitors, cytokine rescue, dose response, luminescence, retest (AID 449756); assay type: functional, cell-based; conditions: Rattus norvegicus;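 note: cell death triggered by IL-1 beta plus TNF-alpha plus IFN-gamma mixture; protective hits raise ATP signal compared with cytokine alone wells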
[18] = Shn3 3'UTR reporter inhibitors, dose response, cell-based, Clone20 osteoblasts, firefly luciferase, cherry-picked (AID 624132); assay type: functional;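 note: firefly luciferase luminescence from reporter carrying the Shn3 3'UTR in osteoblasts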
[19] = HepG2 cell cytotoxicity, dose response, cytotoxicity control for Shn3 inhibitor project, CellTiter-Glo, cherry-picked (AID 624134); assay type: functional, cell-based
[20] = control 3'UTR Renilla luciferase suppression, dose response, counter-screen for Shn3 inhibitor project, cell-based, Clone20-Shn3RL, cherry-picked (AID 624133); assay type: functional
[21] = molecular target: Eukaryotic translation initiation factor 4E (Mus musculus, UniProt P63073); assay: eIF4E–eIF4G protein interaction inhibitors, dose response, biochemical, TR-FRET (AID 855); assay type: functional;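 note: potency for disrupting eIF4E binding to eIF4GI seen as loss of FRET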
[22] = Luminescence Cell-Based Dose Retest to Confirm Inhibitors of Cancer Stem Cells. [Related pubchem assays (depositor defined):AID2717, AID2721]; assay type: functional; conditions: Homo sapiens
[23] = molecular target: T5, Ubiquitin-conjugating enzyme E2 N (Homo sapiens, UniProt P61088); assay type: functional;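 note: Dose-response confirmation in a TR-FRET assay detecting UBC13-driven polyubiquitin chain formation, inhibition measured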
T5 sequence (P61088 whole entry): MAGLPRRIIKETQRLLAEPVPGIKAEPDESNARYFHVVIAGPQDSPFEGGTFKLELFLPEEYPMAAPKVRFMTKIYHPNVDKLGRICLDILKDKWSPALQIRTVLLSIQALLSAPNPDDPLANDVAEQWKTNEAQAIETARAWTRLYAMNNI

[24] = molecular target: Induced myeloid leukemia cell differentiation protein Mcl-1 (Homo sapiens, UniProt Q07820); assay type: functional
[25] = molecular target: T6, Corticotropin-releasing factor receptor 2/Corticotropin-releasing factor-binding protein (Homo sapiens, UniProt P24387+Q13324); assay: activators of CRF receptor 2 with binding protein – uHTS hits, confirmation (AID 602473); assay type: functional; conditions: read-out: EC50_Mean
T6 sequence (Q13324 whole entry): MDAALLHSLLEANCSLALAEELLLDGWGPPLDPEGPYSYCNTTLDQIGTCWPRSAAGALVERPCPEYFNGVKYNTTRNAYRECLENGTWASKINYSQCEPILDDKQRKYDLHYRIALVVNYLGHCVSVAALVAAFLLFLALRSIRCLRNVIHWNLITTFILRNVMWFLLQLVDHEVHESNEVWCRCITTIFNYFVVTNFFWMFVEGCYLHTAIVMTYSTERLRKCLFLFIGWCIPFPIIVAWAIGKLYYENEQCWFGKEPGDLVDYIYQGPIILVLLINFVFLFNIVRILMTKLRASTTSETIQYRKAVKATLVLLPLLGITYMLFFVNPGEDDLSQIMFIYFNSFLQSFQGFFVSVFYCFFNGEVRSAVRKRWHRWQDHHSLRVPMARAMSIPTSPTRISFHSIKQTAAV
T6 sequence (P24387 whole entry): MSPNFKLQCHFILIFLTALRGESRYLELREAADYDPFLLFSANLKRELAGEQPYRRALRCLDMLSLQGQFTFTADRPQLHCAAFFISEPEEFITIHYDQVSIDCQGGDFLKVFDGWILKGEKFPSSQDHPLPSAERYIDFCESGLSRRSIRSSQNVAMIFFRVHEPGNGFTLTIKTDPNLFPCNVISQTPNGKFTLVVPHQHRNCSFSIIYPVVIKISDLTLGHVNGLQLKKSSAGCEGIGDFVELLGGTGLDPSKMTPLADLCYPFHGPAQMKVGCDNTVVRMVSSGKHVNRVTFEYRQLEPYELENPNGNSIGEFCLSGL

Glyceraldehyde-3-phosphate dehydrogenase, sequence (P04406 whole entry): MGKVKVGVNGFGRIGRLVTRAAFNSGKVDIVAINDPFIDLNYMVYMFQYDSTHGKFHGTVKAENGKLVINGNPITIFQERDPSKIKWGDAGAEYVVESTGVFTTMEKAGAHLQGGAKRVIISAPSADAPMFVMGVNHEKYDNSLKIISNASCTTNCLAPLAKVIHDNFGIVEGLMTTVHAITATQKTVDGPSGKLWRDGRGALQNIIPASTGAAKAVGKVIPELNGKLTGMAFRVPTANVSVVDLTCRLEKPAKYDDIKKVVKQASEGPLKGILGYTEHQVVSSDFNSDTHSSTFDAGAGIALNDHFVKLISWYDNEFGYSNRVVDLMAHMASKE
DNA dC->dU-editing enzyme APOBEC-3A, sequence (P31941 whole entry): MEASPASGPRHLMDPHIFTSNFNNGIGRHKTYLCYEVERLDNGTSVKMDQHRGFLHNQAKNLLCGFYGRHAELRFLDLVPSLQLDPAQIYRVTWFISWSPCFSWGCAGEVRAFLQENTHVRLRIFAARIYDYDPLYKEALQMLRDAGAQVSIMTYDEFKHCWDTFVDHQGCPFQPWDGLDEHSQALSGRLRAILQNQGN
DNA dC->dU-editing enzyme APOBEC-3G, sequence (Q9HC16 whole entry): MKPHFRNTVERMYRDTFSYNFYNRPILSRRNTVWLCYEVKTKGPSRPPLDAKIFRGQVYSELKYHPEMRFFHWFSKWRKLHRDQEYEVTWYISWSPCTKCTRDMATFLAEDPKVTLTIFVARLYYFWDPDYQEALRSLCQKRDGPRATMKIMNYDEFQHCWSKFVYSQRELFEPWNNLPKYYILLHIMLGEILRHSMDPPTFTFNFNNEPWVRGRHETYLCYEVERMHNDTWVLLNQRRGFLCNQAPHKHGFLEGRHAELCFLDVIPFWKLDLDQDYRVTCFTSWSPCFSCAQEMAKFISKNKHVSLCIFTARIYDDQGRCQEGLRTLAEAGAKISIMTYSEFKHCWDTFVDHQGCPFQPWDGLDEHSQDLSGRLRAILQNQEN
Eukaryotic translation initiation factor 4E, sequence (P63073 whole entry): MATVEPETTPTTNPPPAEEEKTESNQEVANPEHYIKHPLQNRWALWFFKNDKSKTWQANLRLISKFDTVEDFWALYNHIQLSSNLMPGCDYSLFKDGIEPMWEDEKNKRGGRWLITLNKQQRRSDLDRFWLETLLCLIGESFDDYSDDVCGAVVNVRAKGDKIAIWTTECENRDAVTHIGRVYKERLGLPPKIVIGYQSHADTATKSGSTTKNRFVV
Induced myeloid leukemia cell differentiation protein Mcl-1, sequence (Q07820 whole entry): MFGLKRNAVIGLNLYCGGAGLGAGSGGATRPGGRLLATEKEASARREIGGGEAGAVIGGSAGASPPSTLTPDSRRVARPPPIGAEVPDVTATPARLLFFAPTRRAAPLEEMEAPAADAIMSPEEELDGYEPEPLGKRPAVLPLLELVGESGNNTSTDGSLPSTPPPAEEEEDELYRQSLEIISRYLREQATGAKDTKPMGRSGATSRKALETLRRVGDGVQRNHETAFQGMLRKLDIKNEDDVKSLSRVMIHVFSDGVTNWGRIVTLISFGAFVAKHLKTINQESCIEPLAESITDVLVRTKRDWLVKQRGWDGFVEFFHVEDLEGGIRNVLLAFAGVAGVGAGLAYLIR

Cn1cnc(-c2cccnc2)c1
IC50 [1]: > 100 µM (not active) | IC50 [2]: > 100 µM (inactive)

COc1ccccc1N1CCN(C(=O)c2cc3c(s2)CCC3)CC1
IC50 (Bcl-2-like protein 10): 36.6 µM (active) | IC50 (Estrogen receptor): 5.19 µM (active)

COC(=O)c1ccc(Cn2c(CN3CCOCC3)nc3ccccc3c2=O)o1
IC50 (cells [3]): 17.4 µM (active)

Cc1cc(C)c2c(-n3cccc3)c(C(=O)NNS(=O)(=O)c3ccc(Cl)cc3)sc2n1
CC50 [4]: 37.1 µM (active) | IC50 (cells [3]): 40.2 µM (active)

CCN1CCN(S(=O)(=O)c2ccc(Cl)c(C(=O)N(C)C(c3ccccc3)c3ccccc3)c2)CC1
IC50 [5]: 4.6 µM (active) | IC50 [6]: 5.67 µM (active)

O=C(COc1ccccc1C(=O)O)Nc1ccc(SC(F)F)cc1
EC50 [7]: > 195 µM (not active) | IC50 (Prothrombin): > 50 µM (not active)

c1cncc(-c2cnc3ccccc3c2)c1
IC50 [1]: > 100 µM (not active) | IC50 [2]: > 100 µM (inactive)

CN(C)CC(C(=O)c1ccccc1)c1ccccc1 (stereo not given)
EC50 [8]: > 120 µM (not active) | EC50 [9]: > 120 µM (not active) | EC50 (H4): > 120 µM (not active) | EC50 [10]: 3.6 µM (active) | EC50 [11]: 5.35 µM (active) | EC50 [12]: > 30 µM (not active) | EC50 [13]: 2.99 µM (active) | CC50 [14]: 7.72 µM (active) | CC50 [15]: 12.9 µM (active) | CC50 [16]: 10.6 µM (active) | IC50 (cells [17]): 4.64 µM (active) | AC50 (INS1): 7.43 µM (active) | AC50 [18]: 2.8 µM (active) | AC50 [19]: 19.2 µM (active) | AC50 [20]: 8.54 µM (active)

Cc1ccccc1N=Nc1c(C)[nH]n(-c2ccccc2)c1=O
IC50 [21]: 50 µM (inactive)

COc1ccc2nc(C)cc(N/N=C/c3ccccc3)c2c1
CC50 [14]: 10.9 µM (active) | AC50 [22]: 5.6 µM (active) | CC50 [15]: 9.19 µM (active) | IC50 [23]: > 20 µM (inactive) | CC50 [16]: 6.15 µM (active) | IC50 (cells [17]): 0.52 µM (active) | AC50 (INS1): 2.68 µM (active)

COC(=O)CNc1c(-c2ccccn2)nc2ccc(Br)cn12
IC50 (Bcl-2-like protein 10): > 12.5 µM (inactive)

COc1ccc(NC(C)C(=O)Nc2ccc(C#N)cc2)cc1Cl (stereo not given)
IC50 [24]: 35.9 µM (not active) | IC50 [21]: > 64 µM (inactive)

COC(=O)Cn1cc(/C=C/c2cc[n+](C)cc2)c2ccccc21
IC50 [5]: 3.05 µM (active) | IC50 [6]: 3.58 µM (active) | EC50 [25]: 8.34 µM (active)

COc1ccccc1-n1c(C)cc(/C=C2\C(=N)N3N=C(CC(=O)N4CCOCC4)SC3=NC2=O)c1C
CC50 [4]: 38.3 µM (active) | IC50 (cells [3]): 24.1 µM (active)

Cc1ccc(S(=O)(=O)N2CCN(CCO)CC2)cc1-c1nnc2c3ccccc3c(C)nn12
IC50 (cells [3]): > 50 µM (active)
